Reference: publication PMC6151589, “Identification of Optically Active Pyrimidine Derivatives as Selective 5-HT2C Modulators” (Molecules : A Journal of Synthetic Chemistry and Natural …, 2017)
Where two headings read alike, the source gives them in different places.

How the values were obtained:
5-HT2B [1] = molecular target: T1, 5-HT2B (Homo sapiens, UniProt P41595); assay: radioligand displacement, membranes; type: binding
T1 construct: gene HTR2B; human recombinant receptor; crude membrane fractions of transfected HEK293 or CHO cells
T1 sequence (P41595 whole entry): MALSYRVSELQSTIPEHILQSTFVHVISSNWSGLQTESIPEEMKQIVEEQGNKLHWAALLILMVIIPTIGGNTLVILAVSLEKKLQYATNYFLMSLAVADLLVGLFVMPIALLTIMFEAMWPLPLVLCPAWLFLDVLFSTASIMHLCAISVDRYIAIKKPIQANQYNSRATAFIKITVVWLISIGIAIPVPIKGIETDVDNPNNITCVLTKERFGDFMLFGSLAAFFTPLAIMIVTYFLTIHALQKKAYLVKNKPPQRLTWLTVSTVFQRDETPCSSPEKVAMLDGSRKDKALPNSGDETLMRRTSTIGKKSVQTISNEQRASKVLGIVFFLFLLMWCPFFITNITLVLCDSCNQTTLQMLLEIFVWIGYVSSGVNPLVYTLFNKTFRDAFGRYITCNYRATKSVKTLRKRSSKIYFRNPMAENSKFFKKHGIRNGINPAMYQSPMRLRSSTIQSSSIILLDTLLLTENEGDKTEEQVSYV
Source text: radioligand displacement, membranes on 5-HT2B

5-HT1D = molecular target: T2, 5-HT1D (Homo sapiens, UniProt P28221); assay: biochemical; set-up: species or system HEK293 or CHO; competitive radioligand binding on crude membranes, filtration and scintillation counting
T2 construct: gene HTR1D; human recombinant receptor, crude membranes of HEK293 or CHO cells
T2 sequence (P28221 whole entry): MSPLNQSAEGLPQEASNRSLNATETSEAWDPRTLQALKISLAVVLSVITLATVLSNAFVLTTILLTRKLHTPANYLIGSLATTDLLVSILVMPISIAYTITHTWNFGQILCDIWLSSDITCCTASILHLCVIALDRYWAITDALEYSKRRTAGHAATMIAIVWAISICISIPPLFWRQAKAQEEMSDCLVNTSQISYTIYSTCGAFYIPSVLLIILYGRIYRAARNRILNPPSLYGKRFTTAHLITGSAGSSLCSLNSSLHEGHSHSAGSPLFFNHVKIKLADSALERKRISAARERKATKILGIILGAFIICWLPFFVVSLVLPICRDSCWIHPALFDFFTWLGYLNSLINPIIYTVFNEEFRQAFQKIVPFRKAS
Procedure: (§1) Eleven dilutions (5 × assay concentration) of the test and reference compounds (Table S1) were prepared in standard binding buffer (50 mM tris(hydroxymethyl)-aminomethane-HCl (Tris-HCl), 10 mM MgCl2, 1 mM ethylenediaminetetraacetate (EDTA), pH 7.4) by serial dilution: 0.05 nM, 0.5 nM, 1.5 nM, 5 nM, 15 nM, 50 nM, 150 nM, 500 nM, 1.5 μM, 5 μM, and 50 μM. The radioligand (Table S3) was diluted to five times the assay concentration in standard binding buffer. Aliquots ([…]) of the radioligand were dispensed into the wells of a 96-well plate containing […] of standard binding buffer. Triplicate aliquots ([…]) of the test and reference compound dilutions were then added. Finally, crude membrane fractions ([…]) of cells (HEK293 or CHO) expressing human recombinant receptors were dispensed into each well. A total of […] of the reaction mixtures was incubated at room temperature and shielded from light for 1.5 h, and was then harvested by rapid filtration onto Whatman GF/B glass fiber filters presoaked with 0.3% polyethyleneimine, by using a 96-well Brandel harvester (Gaithersburg, MD, USA). Four rapid washes were performed with chilled standard binding buffer (500 mL) to decrease nonspecific binding. Filters were placed in 6 mL scintillation tubes and allowed to dry overnight. The next day, 4-mL of EcoScint scintillation cocktail (National Diagnostics) was added to each tube. The tubes were capped, labeled, and counted by […] scintillation counting. The filter mats were dried, and the scintillant was melted onto the filters, then the radioactivity retained on the filters was counted in a Microbeta scintillation counter. The IC50 values were obtained by using the Prism 4.0 program (GraphPad Software, La Jolla, CA, USA) and were converted into Ki values. Each compound was tested at least in triplicate. With each enantiomer (R)- or (S)-5d and 5e in hand, the optically active pyrimidine derivatives 4d–4e were synthesized following the same reaction sequences (Scheme 3). Finally, compounds 4d and 4e were assessed for their binding affinity to 5-HT2 receptor subtypes by radioligand binding assays. […] A further evaluation of these compounds for other 5-HT receptor subtypes was also performed and is provided in the supplementary data (Table S2). […] Considering the potencies and selectivities of 4, we can conclude that (R,R)-4e would be a viable candidate for a selective 5-HT2C modulator.

5-HT7 = molecular target: T3, 5-HT7 (Homo sapiens, UniProt P34969); assay: biochemical; set-up: species or system HEK293 or CHO; competitive radioligand binding on crude membranes, filtration and scintillation counting; conditions: for Ki: read-out: Ki (nM), 7
T3 construct: gene HTR7; human recombinant receptor, crude membranes of HEK293 or CHO cells
T3 sequence (P34969 whole entry): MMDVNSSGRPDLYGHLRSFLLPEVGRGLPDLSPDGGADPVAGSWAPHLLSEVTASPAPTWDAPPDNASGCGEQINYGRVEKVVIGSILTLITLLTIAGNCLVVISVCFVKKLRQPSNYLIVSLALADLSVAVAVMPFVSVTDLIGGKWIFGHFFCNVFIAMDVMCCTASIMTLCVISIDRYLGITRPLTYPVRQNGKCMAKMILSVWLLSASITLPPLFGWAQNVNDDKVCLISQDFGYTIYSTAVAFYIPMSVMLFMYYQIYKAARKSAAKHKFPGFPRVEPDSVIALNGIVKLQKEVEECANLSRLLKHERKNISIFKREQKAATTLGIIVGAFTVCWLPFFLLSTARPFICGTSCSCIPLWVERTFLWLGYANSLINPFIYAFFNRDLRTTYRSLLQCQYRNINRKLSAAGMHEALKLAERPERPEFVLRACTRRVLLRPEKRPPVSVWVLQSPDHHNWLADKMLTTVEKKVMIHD
Procedure: as §1

5-HT5A = molecular target: T4, 5-HT5A (Homo sapiens, UniProt P47898); assay: biochemical; set-up: species or system HEK293 or CHO; competitive radioligand binding on crude membranes, filtration and scintillation counting
T4 construct: gene HTR5A; human recombinant receptor, crude membranes of HEK293 or CHO cells
T4 sequence (P47898 whole entry): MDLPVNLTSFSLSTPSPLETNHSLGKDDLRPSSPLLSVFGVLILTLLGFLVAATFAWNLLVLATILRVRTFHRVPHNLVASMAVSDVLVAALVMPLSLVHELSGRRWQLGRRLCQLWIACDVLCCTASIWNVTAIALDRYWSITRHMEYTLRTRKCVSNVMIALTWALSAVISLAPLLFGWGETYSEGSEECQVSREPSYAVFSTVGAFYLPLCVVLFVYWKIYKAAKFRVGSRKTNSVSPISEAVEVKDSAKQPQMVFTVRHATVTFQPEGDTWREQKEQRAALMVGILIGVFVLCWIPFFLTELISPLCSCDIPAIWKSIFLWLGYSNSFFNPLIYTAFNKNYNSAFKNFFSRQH
Procedure: as §1

5-HT3 = molecular target: T5, 5-HT3 (Homo sapiens, UniProt P46098); assay: biochemical; set-up: species or system HEK293 or CHO; competitive radioligand binding on crude membranes, filtration and scintillation counting; conditions: for Ki: read-out: Ki (nM), 3
T5 construct: gene HTR3A; human recombinant receptor, crude membranes of HEK293 or CHO cells
T5 sequence (P46098 1-478): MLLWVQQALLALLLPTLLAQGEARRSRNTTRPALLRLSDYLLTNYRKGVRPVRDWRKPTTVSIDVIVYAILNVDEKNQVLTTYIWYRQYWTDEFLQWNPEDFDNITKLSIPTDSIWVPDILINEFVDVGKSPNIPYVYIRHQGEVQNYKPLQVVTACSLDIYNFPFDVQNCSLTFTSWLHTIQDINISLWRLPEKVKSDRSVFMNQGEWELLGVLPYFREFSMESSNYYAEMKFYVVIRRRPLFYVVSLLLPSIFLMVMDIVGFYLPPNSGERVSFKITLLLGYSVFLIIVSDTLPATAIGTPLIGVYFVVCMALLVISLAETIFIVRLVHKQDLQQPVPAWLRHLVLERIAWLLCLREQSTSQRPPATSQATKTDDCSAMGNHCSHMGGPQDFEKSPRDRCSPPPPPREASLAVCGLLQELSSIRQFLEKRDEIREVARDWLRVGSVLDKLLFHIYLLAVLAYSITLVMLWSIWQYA
Procedure: as §1

5-HT2B [2] = molecular target: T1, 5-HT2B; assay: biochemical; set-up: species or system HEK293 or CHO; competitive radioligand binding on crude membranes, filtration and scintillation counting
Procedure: as §1

5-HT6 = molecular target: T6, 5-HT6 (Homo sapiens, UniProt P50406); assay: biochemical; set-up: species or system HEK293 or CHO; competitive radioligand binding on crude membranes, filtration and scintillation counting; conditions: for Ki: read-out: Ki (nM), 6
T6 construct: gene HTR6; human recombinant receptor, crude membranes of HEK293 or CHO cells
T6 sequence (P50406 whole entry): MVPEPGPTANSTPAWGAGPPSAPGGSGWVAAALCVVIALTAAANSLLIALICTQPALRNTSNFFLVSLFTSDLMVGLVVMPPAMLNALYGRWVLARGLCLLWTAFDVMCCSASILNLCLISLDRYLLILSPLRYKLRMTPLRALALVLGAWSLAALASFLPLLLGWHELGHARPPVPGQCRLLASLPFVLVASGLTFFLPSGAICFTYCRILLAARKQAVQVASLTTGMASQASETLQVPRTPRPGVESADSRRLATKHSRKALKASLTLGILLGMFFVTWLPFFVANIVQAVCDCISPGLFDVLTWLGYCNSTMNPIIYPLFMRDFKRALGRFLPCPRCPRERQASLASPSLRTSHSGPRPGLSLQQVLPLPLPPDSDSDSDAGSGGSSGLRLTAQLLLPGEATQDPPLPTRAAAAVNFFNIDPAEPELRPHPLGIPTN
Procedure: as §1

5-HT1B = molecular target: T7, 5-HT1B (Homo sapiens, UniProt P28222); assay: biochemical; set-up: species or system HEK293 or CHO; competitive radioligand binding on crude membranes, filtration and scintillation counting
T7 construct: gene HTR1B; human recombinant receptor, crude membranes of HEK293 or CHO cells
T7 sequence (P28222 whole entry): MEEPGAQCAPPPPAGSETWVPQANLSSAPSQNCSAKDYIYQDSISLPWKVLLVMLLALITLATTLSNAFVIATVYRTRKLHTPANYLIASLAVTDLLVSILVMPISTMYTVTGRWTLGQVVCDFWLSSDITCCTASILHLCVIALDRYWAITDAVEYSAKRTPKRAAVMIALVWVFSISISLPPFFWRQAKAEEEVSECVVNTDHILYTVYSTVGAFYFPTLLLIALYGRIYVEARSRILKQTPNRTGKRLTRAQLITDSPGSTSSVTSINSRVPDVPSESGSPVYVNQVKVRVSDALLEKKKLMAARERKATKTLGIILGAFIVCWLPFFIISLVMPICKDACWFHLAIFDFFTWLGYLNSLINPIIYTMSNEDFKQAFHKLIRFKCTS
Procedure: as §1

C[C@@H]1CNCCN1c1ncc(F)c(O[C@H](C)c2cccc(F)c2)n1 [(R,R)-4d, 5-Fluoro-4-((R)-1-(3-fluorophenyl)ethoxy)-2-((R)-2-methylpiperazin-1-yl)pyrimidine]
Ki (5-HT2B [1]): 0.0026 µM
inhibition at 10 µM (5-HT1D): -6.8%
inhibition at 10 µM (5-HT7): 84.4%
Ki (5-HT7): 444 nM
inhibition at 10 µM (5-HT5A): 28.1%
inhibition at 10 µM (5-HT3): 89.4%
Ki (5-HT3): 242 nM
inhibition at 10 µM (5-HT2B [2]): 100%
inhibition at 10 µM (5-HT6): 95.7%
Ki (5-HT6): 57 nM
inhibition at 10 µM (5-HT1B): 27.7%

C[C@@H]1CNCCN1c1ncc(F)c(O[C@H](C)c2ccc(F)cc2)n1 [(R,R)-4e, 5-Fluoro-4-((R)-1-(4-fluorophenyl)ethoxy)-2-((R)-2-methylpiperazin-1-yl)pyrimidine]
Ki (5-HT2B [1]): 0.019 µM
inhibition at 10 µM (5-HT1D): -7.7%
inhibition at 10 µM (5-HT7): 87.6%
Ki (5-HT7): 236 nM
inhibition at 10 µM (5-HT5A): 26.7%
inhibition at 10 µM (5-HT3): 87.8%
Ki (5-HT3): 242 nM
inhibition at 10 µM (5-HT2B [2]): 99.6%
inhibition at 10 µM (5-HT6): 97.4%
Ki (5-HT6): 17 nM
inhibition at 10 µM (5-HT1B): 6.4%

C[C@H](Oc1nc(N2CCNC[C@H]2C)ncc1F)c1cccc(F)c1 [(S,R)-4d, 5-Fluoro-4-((S)-1-(3-fluorophenyl)ethoxy)-2-((R)-2-methylpiperazin-1-yl)pyrimidine]
Ki (5-HT2B [1]): 0.067 µM
inhibition at 10 µM (5-HT1D): 10.3%
inhibition at 10 µM (5-HT7): 56.9%
Ki (5-HT7): 766 nM
inhibition at 10 µM (5-HT5A): 22.8%
inhibition at 10 µM (5-HT3): 78.6%
Ki (5-HT3): 501 nM
inhibition at 10 µM (5-HT6): 91.6%
Ki (5-HT6): 70 nM
inhibition at 10 µM (5-HT1B): 3%

C[C@H](Oc1nc(N2CCNC[C@H]2C)ncc1F)c1ccc(F)cc1 [(S,R)-4e, 5-Fluoro-4-((S)-1-(4-fluorophenyl)ethoxy)-2-((R)-2-methylpiperazin-1-yl)pyrimidine]
Ki (5-HT2B [1]): 0.128 µM
inhibition at 10 µM (5-HT1D): 40.4%
inhibition at 10 µM (5-HT7): 64.8%
Ki (5-HT7): 946 nM
inhibition at 10 µM (5-HT5A): 5.2%
inhibition at 10 µM (5-HT3): 70.1%
Ki (5-HT3): 1000 nM
inhibition at 10 µM (5-HT2B [2]): 95.3%
inhibition at 10 µM (5-HT6): 86.1%
Ki (5-HT6): 116 nM
inhibition at 10 µM (5-HT1B): 17.9%

C[C@H](Cc1cccc(F)c1)Oc1nc(N2CCNC[C@H]2C)ncc1F [compound 3, pyrimidine analogue 3]
Ki (5-HT2B [1]; pH […] MgCl2, room temperature, reference compound, may stem from the authors' earlier study (ref […])): 0.0079 µM
inhibition at 10 µM (5-HT1D): 78.3%
Ki (5-HT1D; read-out: Ki (nM), 1D): 542 nM
inhibition at 10 µM (5-HT7): 94.7%
Ki (5-HT7): 84 nM
inhibition at 10 µM (5-HT5A): 37.4%
inhibition at 10 µM (5-HT3): 75%
Ki (5-HT3): 241 nM
inhibition at 10 µM (5-HT2B [2]): 97.4%
inhibition at 10 µM (5-HT6): 93.8%
Ki (5-HT6): 43 nM
inhibition at 10 µM (5-HT1B): 55.1%
Ki (5-HT1B; read-out: Ki (nM), 1B): 1780 nM
